Assay results reported in patent US9029366B2, “Substituted bicyclic alkoxy pyrazole analogs as allosteric modulators of mGluR5 receptors” (Vanderbilt University, priority 2012, dated 2015).

How the values were obtained:
human mGluR5 = human mGluR5 (Homo sapiens, UniProt P41594); experiment: Cell-based functional Ca2+ mobilization assay (FDSS), potentiation of glutamate EC20 response, HEK293A cells transfected with human mGluR5a (H10H or H12H cell line); settings: H10H cell line expressing recombinant human mGluR5, in presence of glutamate EC20, ** = compound is an antagonist; for EC50: read-out: pEC50 (converted); for Emax: HEK293-A, % of maximal glutamate response
Experimental: Human embryonic kidney (HEK) cells transfected with rat mGluR5 were plated in clear bottom assay plates for assay in a Functional Drug Screening System (FDSS). In the alternative assay, HEK cells transfected with human mGluR5 were plated for assay in the FDSS. In some cases the HEK cells transfected with human mGluR5 are the H10H cell line. Alternatively, the HEK cells transfected with human mGluR5 are the H12H cell line. […] The cells were loaded with a Ca^2+-sensitive fluorescent dye (e.g., Fluo-4), and the plates were washed and placed in the FDSS instrument. After establishment of a fluorescence baseline for about three seconds, the compounds of the present invention were added to the cells, and the response in cells was measured. Five minutes later, an mGluR5 agonist (e.g., glutamate, 3,5-dihydroxyphenylglycine, or quisqualate) was added to the cells, and the response of the cells was measured.
The above described assay can be operated in two modes. In the first mode, a range of concentrations of the present compounds were added to cells, followed by a single fixed concentration of agonist. If a compound acted as a potentiator, an EC50 value for potentiation and a maximum extent of potentiation by the compound at this concentration of agonist was determined by non-linear curve fitting. In the second mode, several fixed concentrations of the present compounds were added to various wells on a plate, followed by a range of concentrations of agonist for each concentration of present compound; the EC50 values for the agonist at each concentration of compound were determined by non-linear curve fitting. A decrease in the EC50 value of the agonist with increasing concentrations of the present compounds (a leftward shift of the agonist concentration-response curve) is an indication of the degree of mGluR5 potentiation at a given concentration of the present compound. An increase in the EC50 value of the agonist with increasing concentrations of the present compounds (a rightward shift of the agonist concentration-response curve) is an indication of the degree of mGluR5 antagonism at a given concentration of the present compound. The second mode also indicates whether the present compounds also affect the maximum response to mGluR5 to agonists.
Human mGluR5a cDNA in pCMV6-XL6 mammalian expression plasmid was purchased from OriGene Technologies, Inc. (catalogue number SC326357) and subcloned into pcDNA3.1(−). Human embryonic kidney (HEK)293A cells were then transfected with human mGluR5a pcDNA3.1(−) using LipofectAmine2000 (Invitrogen) and monoclones were selected and tested for functional response using a Ca^2+ mobilization assay. Monoclones were named for the species (“H” for human) plus the location on the plate (e.g. “10H”).
HEK cells transfected with the human mGluR5a receptor (H10H or H12H cell line) were plated at 15,000 cells/well in clear-bottomed poly-D-lysine-coated assay plates (BD Falcon) in glutamate-glutamine-free growth medium and incubated overnight at 37° C. and 5% CO2. Cell-lines used were either the H10H or H12H cell-lines expressing the human mGluR5 receptor. The following day, the growth medium was removed and the cells were washed with assay buffer containing 1× Hank's balanced salt solution (Invitrogen, Carlsbad, Calif.), 20 mM HEPES, 2.5 mM probenecid, pH 7.4 and left with 20 μL of this reagent. Following this step, the cells were loaded with calcium indicator dye, fluo-4 AM, to a final concentration of 2 μM and incubated for 40-45 min at 37° C. The dye solution was removed and replaced with assay buffer. Cell plates were held for 10-15 min at room temperature and were then loaded into the Functional Drug Screening System 6000 (FDSS 6000, Hamamatsu, Japan).
After establishment of a fluorescence baseline for about 3 seconds, the compounds of the present invention were added to the cells, and the response in cells was measured.

Sequence of human mGluR5 (P41594 21-1180 isoform P41594-2 limits assumed): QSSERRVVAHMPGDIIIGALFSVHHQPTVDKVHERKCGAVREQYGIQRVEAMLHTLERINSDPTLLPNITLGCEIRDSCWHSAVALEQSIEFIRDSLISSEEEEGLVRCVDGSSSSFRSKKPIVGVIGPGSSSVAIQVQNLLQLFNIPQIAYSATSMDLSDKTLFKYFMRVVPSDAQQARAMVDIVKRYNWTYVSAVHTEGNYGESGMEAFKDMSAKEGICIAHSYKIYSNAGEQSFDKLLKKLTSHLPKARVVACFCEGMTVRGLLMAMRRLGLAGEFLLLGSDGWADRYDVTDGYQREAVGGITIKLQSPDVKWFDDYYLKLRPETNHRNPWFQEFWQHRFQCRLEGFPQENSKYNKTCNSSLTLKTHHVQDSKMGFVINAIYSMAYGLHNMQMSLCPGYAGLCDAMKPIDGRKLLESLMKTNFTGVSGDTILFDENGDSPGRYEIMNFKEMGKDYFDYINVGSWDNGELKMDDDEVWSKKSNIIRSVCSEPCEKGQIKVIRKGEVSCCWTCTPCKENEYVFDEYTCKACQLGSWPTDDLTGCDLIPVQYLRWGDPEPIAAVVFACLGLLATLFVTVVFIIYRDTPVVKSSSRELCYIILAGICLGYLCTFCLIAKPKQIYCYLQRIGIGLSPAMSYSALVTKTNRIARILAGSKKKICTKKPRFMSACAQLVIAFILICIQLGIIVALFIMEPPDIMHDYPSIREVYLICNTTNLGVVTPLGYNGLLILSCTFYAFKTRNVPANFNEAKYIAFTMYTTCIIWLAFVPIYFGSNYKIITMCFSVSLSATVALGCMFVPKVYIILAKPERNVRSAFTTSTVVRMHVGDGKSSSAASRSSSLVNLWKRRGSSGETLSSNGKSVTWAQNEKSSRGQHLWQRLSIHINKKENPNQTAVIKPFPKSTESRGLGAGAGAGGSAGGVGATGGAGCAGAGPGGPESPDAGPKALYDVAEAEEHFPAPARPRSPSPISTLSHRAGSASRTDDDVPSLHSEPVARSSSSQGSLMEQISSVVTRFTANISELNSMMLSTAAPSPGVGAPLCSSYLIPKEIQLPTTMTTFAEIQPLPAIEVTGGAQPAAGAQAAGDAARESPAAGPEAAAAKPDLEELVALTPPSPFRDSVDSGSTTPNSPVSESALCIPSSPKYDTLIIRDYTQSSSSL

Compound	melting point	EC50 (human mGluR5)	Emax (human mGluR5)
O=C(c1cc(F)cc(F)c1)N1CCn2nc(OCc3ccccc3F)cc2C1 [Example B132]	118.1 °C	0.224 µM	42%
O=C(c1ccc(F)cc1F)N1CCn2nc(OCc3ccccc3)cc2C1 [Example B102]	182.1 °C	0.148 µM	76%
Cc1ccc(COc2cc3n(n2)CCN(C(=O)c2ccc(F)cc2)C3)cc1 [Example B12]	156.9 °C	> 30.2 µM	28%
Cc1cccc(C(=O)N2CCn3nc(OCc4ccccc4)cc3C2)n1 [Example B32]	81.2 °C	> 10 µM	32%
N#Cc1cccc(COc2cc3n(n2)CCN(C(=O)c2cccc(F)c2)C3)c1 [Example B106]	103.3 °C	0.166 µM	37%
N#Cc1cc(F)cc(C(=O)N2CCn3nc(OCc4cccc(F)c4)cc3C2)c1 [Example B101]	118.2 °C	> 30.2 µM	32%
COc1ccc(COc2cc3n(n2)CCN(C(=O)c2ccc(F)cc2)C3)cc1 [Example B15]	108.3 °C	> 30.2 µM	22%
O=C(c1ccc(F)cc1F)N1CCn2nc(OCc3cccc(F)c3)cc2C1 [Example B129]	115.4 °C	0.0977 µM	68%
COc1ccccc1COc1cc2n(n1)CCN(C(=O)c1ccc(F)cc1)C2 [Example B17]	135.6 °C	> 10 µM	47%
O=C(c1cc(F)ccc1F)N1CCn2nc(OCc3ccccc3)cc2C1 [Example B114]	123.7 °C	0.417 µM	72%
Cc1ncc(C(=O)N2CCn3nc(OCc4ccccc4)cc3C2)cn1 [Example B83]	166.4 °C	> 30.2 µM	27%
O=C(c1cccc(F)c1F)N1CCn2nc(OCc3ccccc3)cc2C1 [Example B115]	122.7 °C	0.537 µM	40%
O=C(c1ccc(F)cc1)N1CCn2nc(OCc3ccccn3)cc2C1 [Example B18]	138.1 °C	> 30.2 µM	22%
N#Cc1cccc(COc2cc3n(n2)CCN(C(=O)c2ccccc2Cl)C3)c1 [Example B131]	116.8 °C	> 30.2 µM	16%
O=C(c1ccc(F)cc1)N1CCn2nc(OCc3ccccc3F)cc2C1 [Example B11]	135.2 °C	0.234 µM	64%
Cc1ccc(C(=O)N2CCn3nc(OCc4ccccc4)cc3C2)cn1 [Example B33]	104.6 °C	3.89 µM	44%
O=C(c1cccc(Cl)c1)N1CCn2nc(OCc3ccc(F)cc3)cc2C1 [Example B111]	125.2 °C	0.38 µM	49%

Compound	melting point	EC50 (human mGluR5)	Emax (human mGluR5)
Cc1ncccc1C(=O)N1CCn2nc(OCc3ccccc3)cc2C1 [Example B34]	129.2 °C	> 30.2 µM	28%
N#Cc1cccc(COc2cc3n(n2)CCN(C(=O)c2cc(F)cc(F)c2)C3)c1 [Example B119]	124 °C	> 30.2 µM	15%
N#Cc1cccc(COc2cc3n(n2)CCN(C(=O)c2ccc(F)cc2)C3)c1 [Example B3, 3-[({5-[(4-fluorophenyl)carbonyl]-4,5,6,7-tetrahydropyrazolo[1,5-a]pyrazin-2-yl}oxy)methyl]benzonitrile]	> 300 °C	0.126 µM	60%
O=C(c1cccc(F)c1)N1CCn2nc(OCc3ccccc3)cc2C1 [Example B2, 2-(benzyloxy)-5-[(3-fluorophenyl)carbonyl]-4,5,6,7-tetrahydropyrazolo[1,5-a]pyrazine]	120.8 °C	0.251 µM	46%
O=C(c1ccc(F)cc1)N1CCn2nc(OCc3ccncc3)cc2C1 [Example B20]	178.8 °C	0.457 µM	53%
O=C(c1ccc(F)cc1F)N1CCn2nc(OCc3ccccc3F)cc2C1 [Example B133]	132.8 °C	0.166 µM	76%
N#Cc1cccc(C(=O)N2CCn3nc(OCc4ccccc4)cc3C2)c1 [Example B5]	151.6 °C	0.724 µM	42%
N#Cc1ccc(COc2cc3n(n2)CCN(C(=O)c2ccccc2)C3)cc1 [Example B110]	155.6 °C	> 30.2 µM	30%
O=C(c1ccc(F)cc1)N1CCCn2nc(OCc3ccncc3)cc2C1 [Example B89]	> 300 °C	> 10 µM	40%
Cc1cccc(COc2cc3n(n2)CCN(C(=O)c2ccc(F)cc2)C3)c1 [Example B13]	118.9 °C	0.339 µM	59%
Cc1nccc(C(=O)N2CCn3nc(OCc4ccccc4)cc3C2)n1 [Example B31]	134 °C	> 30.2 µM	28%
Cc1cc(COc2cc3n(n2)CCN(C(=O)c2ccc(F)cc2)C3)ccn1 [Example B4, 5-[(4-fluorophenyl)carbonyl]-2-[(2-methylpyridin-4-yl)methoxy]-4,5,6,7-tetrahydropyrazolo[1,5-a]pyrazine]	103.4 °C	> 10 µM	26%
O=C(c1ccc(F)c(C(F)(F)F)c1)N1CCn2nc(OCc3ccccc3)cc2C1 [Example B109]	135.3 °C		58%
COc1ccc(C(=O)N2CCn3nc(OCc4ccccc4)cc3C2)cn1 [Example B35]	138.6 °C	> 30.2 µM	27%
O=C(c1ccc(F)cn1)N1CCn2nc(OCc3ccccc3)cc2C1 [Example B28]	123 °C	1.51 µM	60%
O=C(c1ccc(F)cc1)N1CCn2nc(OCc3ccc(F)cc3)cc2C1 [Example B9]	165.4 °C	0.479 µM	54%
